Data reported in patent US9622469B2, “Crosslink breakers for preservation of biological substances” (priority 2013, dated 2017).
Marks after values point to notes of the source that are not given here.

How the values were obtained:
[1] = Cleavage of PPD (3) to benzoic acid by NHC precursors, Method B (MeCN co-solvent); type: biochemical; conditions: for Yield (%) of benzoic acid from cleavage of 3: MeCN/pH 7.4 phosphate buffer, 37° C., LCMS peak integration with respect to 3, background 5%; for Benzoic acid formation from 3 (in words): Method B screen of NHC precursors
Protocol: (§1) Dicarbonyl cleavage reactions were performed using either the method described in Vasan et al., An agent cleaving glucose-derived protein crosslinks in vitro and in vivo, Nature (1996) Vol. 382, pp. 275-278 (Method A) or a modified method with MeCN as a co-solvent (Method B).
(§2) 60 mM solution of dicarbonyl substrate (45 μmol) in MeCN (0.75 ml) was added to 20 mM solution of NHC (15 μmol) in 0.15 M pH 7.4 sodium phosphate buffer (0.75 ml) and kept stirred at 37° C. At stated times, 75 μl aliquots were taken, diluted with 50% MeCN/H2O (425 μl) and analyzed by LCMS with 2,4-dihydroxyquinoline (248 μM) as an internal standard. The cleavage products were quantified by peak integration against the calibration curves.
Thus, our first goal in these studies was to assess the ability of various NHC precursors to induce the degradation of the dicarbonyl model substrate (PPD, 3). To this end, we screened the thiazolium (4-6), benzothiazolium (7), triazolium (8,9) and imidazolium (10) halide substructures shown in Table 1.

[2] = Cleavage of PPD by NHC precursors, Method A (alcoholic co-solvent); type: biochemical; conditions: for Combined % Yield (PhCO2H, PhCO2Me): co-solvent MeOH
Protocol: as §1
PPD (21 μl, 156 μmol) was added to a murky solution of NHC (2 or 4, 71 μmol) in 50% MeOH/0.5 M pH 7.4 sodium phosphate buffer (3.5 ml/3.5 ml; final conc. 10 mM NHC, 22 mM PPD) and kept stirred at 37° C. Approximately 0.5 ml aliquots were taken at stated times and analyzed by HPLC. Experiments using EtOH or iPrOH as a co-solvent were done in the same manner. Concentrations of benzoic acid and benzoate esters were determined by peak integration against the calibration curves.
Having learned that ALT-711 performed best among NHCs evaluated for PPD cleavage, we sought to test its substrate scope versus its N-benzyl counterpart (4). We therefore measured product distribution and yield while varying the co-solvent used to solubilize dicarbonyl substrates. As summarized in Table 2, we first investigated the performance of alcoholic co-solvents in PPD cleavage reactions. […] Despite this, however, the product distributions differed substantially: ALT-711 (2) predominantly afforded benzoic acid (PhCO2H:PhCO2Me=3.2:1, Entry 2), whereas 4 mostly gave rise to methyl benzoate (PhCO2H:PhCO2Me=1:2.2, Entry 4). Further replacement of the co-solvent with EtOH and i-PrOH in 4-catalyzed reactions led to a decrease in the proportion of ester production, still without altering overall yield (Entries 5 and 6).

[3] = tested on: mouse RBC; assay: Storage of leukoreduced mouse blood in CPDA-1 at 4° C.: hemolysis and intact RBC count; type: cell-based; conditions: CPDA-1 buffer
Protocol: FIG. 1 illustrates OCR6043-mediated prolonging of the integrity of stored RBCs. Leuko reduced mouse blood was stored under FDA-approved storage conditions (CPDA-1 buffer at 4° C.) for up to 13 days, in either OCR6043, control compound (structurally similar to OCR6043, but nonfunctional as a AGE crosslink breaker), or without any additive.
This solution was stored at 4° C. according to FDA-approved conditions for 13 days. […] The steps to collect HOD blood from mice and the addition of the FDA-approved storage buffer CPDA are described in Hendrickson et al., Transfusion of fresh murine red blood cells reverses adverse effects of older stored red blood cells, Transfusion (2011) Vol. 12, pp. 2695-2702.
We also counted the intact RBCs using a hemocytometer after 13 days of storage as also depicted in FIG. 1.

[4] = tested on: HOD alloantigen on stored RBCs; assay: Immunogenicity of stored blood upon transfusion (anti-HOD IgG ELISA); type: in vivo, mouse; conditions: blood stored 14 days, transfused into B6 mice, 14 days following transfusion
Protocol: Leuko-reduced mouse blood was stored under typical storage conditions for up to 14 days, in either OCR6043, control compound, or without any treatment. FIG. 2A illustrates an analysis of glucose in the serum from the stored blood was evaluated using a glucose oxidase enzymatic assay. […] FIG. 2B illustrates the AGE precursor levels on RBCs were measured using a dicarbonyl-specific fluorophore that was developed in-house. The time dependent increase in the AGE precursor levels was dampened in the presence of OCR6043. FIG. 2C illustrates mouse blood that was stored for 14 days, was evaluated for its immunogenicity upon transfusion, by testing for IgGs against an alloantigen on the RBCs (HOD=HEL-OVA-Duffy).
OCR6043 treatment decreases immunogenicity, and enhances post-transfusion recovery of stored mouse blood. Leukoreduced mouse blood was stored under typical storage conditions for up to 14 days in either OCR6043 or without any treatment. This mouse blood was evaluated for its immunogenicity upon transfusion by testing for IgGs against an alloantigen on the RBCs (HOD=HEL-OVA-Duffy).
As described herein, the stored blood has an HOD marker allowing facile detection after transfusion. We transfused […] of stored blood into B6 mice (not expressing the HOD antigen). […] The anti-HOD IgG response was evaluated using standard ELISA techniques described in Hendrickson et at.

[5] = physiological conditions; cited from earlier work
[6] = NHC-mediated cleavage of benzil (15), Method B; type: biochemical; conditions: LCMS, with respect to dicarbonyl
Protocol: as §2
(§3) Our efforts to investigate the scope of thiazolium salt-mediated reactions with dicarbonyls began with bis-alkyl diketone 14 (Table 3, Entry 1). This substrate is cleaved cleanly by 2, and affords acid 18 in 82% yield. NHC precursor 4, on the other hand, provides 18 in only 14% yield (Entry 2). The efficiency of dicarbonyl cleavage reactions decreases substantially in the case of benzil (15, Entry 3), which affords benzoic acid in 14% and 1% yield following exposure to 2 and 4, respectively.

[7] = NHC-mediated cleavage of bis-alkyl diketone 14, Method B; type: biochemical; conditions: LCMS, with respect to dicarbonyl
Protocol: as §2, §3

[8] = NHC-mediated reaction with α-keto aldehyde phenylglyoxal (16), Method B; type: biochemical; conditions: LCMS, phenylglyoxal alone gives 25% benzoic acid
Protocol: as §2
Phenylglyoxal hydrate (16; 114 mg, 0.75 mmol, 2 eq) was added to a solution of ALT-711 (2; 100 mg, 0.37 mmol) in 50% MeCN/0.15 M pH 7.4 phosphate buffer (total vol. 37 ml) and kept stirred at room temperature for 15 mins. The reaction mixture was cooled to −20° C. to precipitate out sodium phosphate as white crystals. The supernatant was transferred, and the residue was washed with MeCN and combined with the supernatant. This yellow clear solution was concentrated at room temperature to remove MeCN and purified by HPLC (16-27MeCN over 31 min). […]
Reactions involving α-keto aldehyde derivatives 16 and 17 followed an unexpected course. Treatment of these substrates with 2 led to instantaneous, high-yield production of a diastercomeric mixture of cycloadducts (19 and 20) that decompose to complex mixtures under the reaction conditions with half-lives of approximately 3 h Structures were determined based on in-depth NMR analysis (see Supplementary Material).

SMILES: Cn1c[n+](Cc2ccccc2)cn1.[Cl-] [drawing 13]
- Yield (%) of benzoic acid from cleavage of 3 ([1]; Method B): 0^b %

SMILES: Cc1c(CCO)sc[n+]1Cc1ccccc1.[Cl-] [drawing 10]
- Yield (%) of benzoic acid from cleavage of 3 ([1]; Method B): 14%

SMILES: [Cl-].c1ccc(C[n+]2csc3ccccc32)cc1 [drawing 12]
- Yield (%) of benzoic acid from cleavage of 3 ([1]; Method B): 0^b %

SMILES: Cn1c[n+](CC(=O)c2ccccc2)cn1.[Cl-] [Compound 9]
- Benzoic acid formation from 3 (in words) [1]: restores the reactivity to a small extent

SMILES: O=C(C[n+]1ccsc1)c1ccccc1.[Br-] [Compound 1, N-phenacylthiazolium bromide]
- Combined % Yield (PhCO2H, PhCO2Me) [2]: 39%
- RBC viability / intact RBCs (hemocytometer) ([3]; 13 days): higher levels of intact RBCs
- Immunogenicity upon transfusion (IgG against HOD alloantigen) [4]: lower immunogenicity
- Half-life of decomposition [5]: 44 min

SMILES: Cc1sc[n+](CC(=O)c2ccccc2)c1C.[Cl-] [drawing 8]
- Yield (%) of benzoic acid from cleavage of 3 ([1]; Method B): 60%

SMILES: Cc1sc[n+](Cc2ccccc2)c1C
- Yield (%) of benzoic acid from cleavage of 3 ([1]; Method B): 20%

SMILES: Cn1c[n+](CC(=O)c2ccccc2)cn1.[Cl-] [drawing 14]
- Yield (%) of benzoic acid from cleavage of 3 ([1]; Method B): 12%

SMILES: Cn1c[n+](Cc2ccccc2)cn1.[Cl-] [Compound 8]
- Benzoic acid formation from 3 (in words) [1]: no observable levels of benzoic acid

SMILES: Cc1sc[n+](Cc2ccccc2)c1C.[Cl-] [Compound 4, 3-benzyl-4,5-dimethylthiazol-3-ium chloride]
- Combined % Yield (PhCO2H, PhCO2Et) ([2]; co-solvent EtOH): 60%
- Combined % Yield (PhCO2H, PhCO2Me) [2]: 62%
- Combined % Yield (PhCO2H, PhCO2iPr) ([2]; co-solvent i-PrOH): 58%
- % Yield of PhCO2H from substrate 15 (benzil) [6]: 1%
- % Yield of acid 18 from substrate 14 [7]: 14%
- % Yield of PhCO2H from substrate 16 [8]: 30^c %
- Benzoic acid formation from 3 (in words) [1]: substantially lower yields
- Combined % Yield (PhCO2H) ([1]; co-solvent MeCN, Method B, LCMS, with respect to dicarbonyl): 20%

SMILES: [Cl-].c1ccc(C[n+]2csc3ccccc32)cc1 [Compound 7]
- Benzoic acid formation from 3 (in words) [1]: no observable levels of benzoic acid

SMILES: Cn1cc[n+](CC(=O)c2ccccc2)c1.[Cl-] [Compound 10]
- Benzoic acid formation from 3 (in words) [1]: did not produce any benzoic acid

SMILES: Cc1c(CCO)sc[n+]1Cc1ccccc1.[Cl-] [Compound 5]
- Benzoic acid formation from 3 (in words) [1]: substantially lower yields

SMILES: Cn1c[n+](CC(=O)c2ccccc2)cn1.[Cl-] [MPTC, 1-methyl-4-phenacyl-triazolium chloride]
- Hemolysis of stored blood (supernatant appearance) ([3]; up to 13 days, 12 mM): hemolysis

SMILES: Cn1cc[n+](CC(=O)c2ccccc2)c1.[Cl-] [drawing 15]
- Yield (%) of benzoic acid from cleavage of 3 ([1]; Method B): 0^b %
